Some test systems named below: SN12C; OVCAR-8; KM12; DMS-273; NCI-H460; MOLT-4; NCI-H23; RPMI-8226; TK-10; SR; UACC-62; SF-295; EKVX; IGROV-1; MCF7; BT-549; SK-MEL-2; A498; HCC 2998; RXF 393.
Assay in all cases: growth of human tumour cells (NCI), 48 h

Structures are written as SMILES.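 All cell lines were grown in 96-well plates and treated with compound for 48 hours. GI50 marks 50% less growth.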 Active and inactive are the calls of the source. No stated cut-off is given here; in the data, active = GI50 up to about 1.1 µM and inactive = higher.

Take `CCCCCCCCCCCCCCCC(=O)OCC1OC(OC)C(NC(=O)N(CCCl)N=O)C(O)C1O` (stereo not given): the GI50 was 13.4 µM (inactive) in the assay on SN12C; 15.5 µM (inactive) with OVCAR-8; 19 µM (inactive) in the assay with KM12; 10.2 µM (inactive) with DMS-273; 5.61 µM (inactive) with NCI-H460; 6.32 µM (inactive) in the assay on MOLT-4. Further, the GI50 with NCI-H23 is 11.5 µM (inactive); in the assay on RPMI-8226 it was 21.3 µM (inactive); with TK-10, 22.8 µM (inactive); with SR, 0.851 µM (active); with UACC-62 it was 2.02 µM (inactive); with SF-295 it was 4.48 µM (inactive). The GI50 with EKVX is 31.2 µM (inactive); with IGROV-1, 18.1 µM (inactive); in the assay on MCF7, 45.4 µM (inactive); in the assay on BT-549, 28.3 µM (inactive); in the assay on SK-MEL-2, 17.7 µM (inactive); in the assay with A498, 29.6 µM (inactive). In addition, the GI50 with HCC 2998 is 18.4 µM (inactive); in the assay on RXF 393 it was 16.7 µM (inactive).
Regarding `Cc1c(CNc2ccc(C(=O)NC(CC(=O)O)C(=O)O)cc2)ccc2nc(N)nc(N)c12` (stereo not given), the GI50 in the assay on SN12C was 0.0499 µM (active); with OVCAR-8 it was < 0.01 µM (active); with KM12, 0.0743 µM (active); in the assay on DMS-273 it was < 0.01 µM (active); in the assay with NCI-H460 it was < 0.01 µM (active); with MOLT-4 it was < 0.0157 µM (active). Besides, the GI50 in the assay on NCI-H23 was < 0.018 µM (active); in the assay on RPMI-8226, < 0.0182 µM (active); with TK-10 it was 1.86 µM (inactive); in the assay with SR, < 0.0296 µM (active); in the assay on UACC-62, < 0.01 µM (active); in the assay with SF-295 it was < 0.0106 µM (active). For the same compound, the GI50 was > 100 µM (inactive) in the assay with EKVX; < 0.01 µM (active) in the assay on IGROV-1; < 0.01 µM (active) in the assay on MCF7; > 100 µM (inactive) with BT-549; > 100 µM (inactive) in the assay with SK-MEL-2; 0.219 µM (active) in the assay with A498. Moreover, the results for the GI50 in the assay with HCC 2998 and in the assay with RXF 393 were < 0.01 µM (active) and 5.04 µM (inactive), respectively.

(Values after ChEMBL document CHEMBL1201862, “PubChem BioAssay data set” (2004).)
